For assay [1], the target named is T1, Peroxisome proliferator-activated receptor alpha (Homo sapiens, UniProt Q07869).
T1 sequence (Q07869 whole entry): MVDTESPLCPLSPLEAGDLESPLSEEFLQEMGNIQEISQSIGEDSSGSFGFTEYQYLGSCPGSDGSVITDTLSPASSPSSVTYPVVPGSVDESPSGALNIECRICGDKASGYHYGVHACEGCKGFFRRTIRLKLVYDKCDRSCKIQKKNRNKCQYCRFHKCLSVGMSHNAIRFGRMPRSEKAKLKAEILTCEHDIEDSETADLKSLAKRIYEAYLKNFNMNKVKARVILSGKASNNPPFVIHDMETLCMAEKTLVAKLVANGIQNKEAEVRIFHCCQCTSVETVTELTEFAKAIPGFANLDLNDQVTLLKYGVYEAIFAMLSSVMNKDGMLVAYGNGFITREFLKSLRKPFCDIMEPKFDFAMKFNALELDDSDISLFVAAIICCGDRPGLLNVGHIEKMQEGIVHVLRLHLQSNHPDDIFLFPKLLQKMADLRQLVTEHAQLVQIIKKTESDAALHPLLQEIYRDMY
The assay is described as follows: Binding affinity of compound to human peroxisome proliferator-activated receptor alpha was determined by competitive binding assay.

Assay [2] deals with T1, Peroxisome proliferator-activated receptor alpha. As to the kind of experiment: Compound was tested for half maximum transactivation activity of human peroxisome proliferator-activated receptor alpha. It is filed as functional.

The structures appear in SMILES notation.

In general, EC50 refers to the concentration at which the effect is half-maximal. A lower EC50 goes with greater potency. On to `CC[C@@H](Cc1ccc(OC)c(C(=O)NCc2ccc(C(F)(F)F)cc2)c1)C(=O)O`, for which, in assay [1], the EC50 turned out to be 0.74 µM. `CC[C@H](Cc1ccc(OC)c(C(=O)NCc2ccc(C(F)(F)F)cc2)c1)C(=O)O`: the EC50 in assay [2] came out at 1500 nM; in assay [1], 24 µM.

For the origin of these results see ChEMBL document CHEMBL1135028, “Enantio-dependent binding and transactivation of optically active phenylpropanoic acid derivatives at human peroxisome proliferator-activated receptor alpha” (Bioorg Med Chem Lett, 2002).
